Assay results as given in paper PMC9555310, “Novel inhibitors and activity-based probes targeting serine proteases” (Frontiers in Chemistry, 2022).
Values joined by “and” are separate entries in the source; they are usually repeats but may differ in a detail not shown here. Identical values can stand only once.

Tests used:
[1] = biological target: T1, trypsin (Sus scrofa, UniProt P00761); assay: Irreversible inhibition kinetics of trypsin (fluorogenic substrate progress curves); type: biochemical, porcine
T1 construct: purchased Sigma-Aldrich; host or cells: porcine pancreas
Experimental: (§1) A range of inhibitor concentrations were prepared from a 10 mM stock solution of the test compounds (NAP533, NAP559, NAP800, NAP830, NAP849, and NAP962) in N, N-dimethylformamide (DMF). Recombinant protease activities were assayed using the cognate fluorogenic substrates as follows: trypsin (Z-Gly-Gly-Arg-NHMec), thrombin (Boc-Val-Pro-Arg-NHMec), plasmin (Boc-Val-Leu-Lys-NHMec), human neutrophil elastase (MeO-Succinyl-Ala-Ala-Pro-Val-NHMec), and chymotrypsin (Succinyl-Ala-Ala-Pro-Phe-NHMec). Each substrate was used at a final concentration of 50 μM, in the appropriate buffer for each protease. All inhibition assays were performed in microtiter plates maintained at 37°C in a final volume of 100 μL. The reaction was initiated by the addition of each protease (approx. 0.01 μg/well) and the rate of substrate hydrolysis was recorded continuously at 37°C, over a 60 min period, by measuring the rate of increase in fluorescence (at λex 360 nm, λem 480 nm) using a FLUOstar Optima microplate reader (BMG Labtech).
(§2) The resultant inhibition progress curves obtained for each inhibitor were analyzed by the kinetic models developed by [Tian and Tsou (1982)] and [Walker and Elmore (1984)], for irreversible inhibitors, with curve fitting being achieved using GraFit (Erithacus Software), as described previously ([Ferguson et al., 2016]).
FIGURE 4 Progress curves for (A), chymotrypsin-catalysed hydrolysis of Succinyl-Ala-Ala-Pro-Phe-NHMec, in the presence of varying concentrations of NAP849. (B), NE-catalysed hydrolysis of MeO-succinyl-Ala-Ala-Pro-Val-NHMec, in the presence of varying concentrations of NAP800. (C) Trypsin-catalysed of Z-Gly-Gly-Arg-NHMec, in the presence of NAP830. (D) Plasmin-catalysed hydrolysis of Boc-Val-Leu-Lys-NHMec, in the presence of varying concentrations of NAP962. Assays were carried out in PBS, pH 7.4, at 37°C, in the presence of a range of inhibitor concentrations (0.25–50 μM) and a fixed concentration (50 μM) of the appropriate substrate for each protease. […]
(§3) Protease inactivation by each of the compounds under study was evaluated using a fluorogenic enzyme assays. […]

[2] = biological target: T2, neutrophil elastase (NE) (Homo sapiens, UniProt P08246); assay: Irreversible inhibition kinetics of neutrophil elastase (fluorogenic substrate progress curves); type: biochemical
T2 construct: purchased Calbiochem
T2 sequence (P08246 30-267): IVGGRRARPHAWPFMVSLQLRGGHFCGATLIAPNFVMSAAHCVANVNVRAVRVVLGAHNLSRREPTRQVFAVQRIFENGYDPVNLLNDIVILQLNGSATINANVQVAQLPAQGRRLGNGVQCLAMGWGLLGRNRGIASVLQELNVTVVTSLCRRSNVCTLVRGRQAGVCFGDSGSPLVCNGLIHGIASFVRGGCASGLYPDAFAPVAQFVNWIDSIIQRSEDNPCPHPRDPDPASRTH
Experimental: as §1, §2
FIGURE 4 Progress curves for (A), chymotrypsin-catalysed hydrolysis of Succinyl-Ala-Ala-Pro-Phe-NHMec, in the presence of varying concentrations of NAP849. (B), NE-catalysed hydrolysis of MeO-succinyl-Ala-Ala-Pro-Val-NHMec, in the presence of varying concentrations of NAP800. (C) Trypsin-catalysed of Z-Gly-Gly-Arg-NHMec, in the presence of NAP830. (D) Plasmin-catalysed hydrolysis of Boc-Val-Leu-Lys-NHMec, in the presence of varying concentrations of NAP962. Assays were carried out in PBS, pH 7.4, at 37°C, in the presence of a range of inhibitor concentrations (0.25–50 μM) and a fixed concentration (50 μM) of the appropriate substrate for each protease.
The “product progress” curves for substrate hydrolysis in the presence of an inhibitor (Figure 4) are indicative of the action of irreversible inhibitors operating through the kinetic scheme illustrated in Figure 6. In this scheme, the formation of the reversible enzyme–inhibitor complex (EI) is zcharacterized by the inhibitor constant K i. This is converted into the covalent/irreversible complex (E-I) characterized by a first-order rate constant k 3. The overall second-order rate constant for the inactivation of E by I is given by the ratio k 3/K i ([Walker and Elmore, 1984]; [Tsou, 1988]). […]
as §3

[3] = first-order rate constant, PBS pH 7.4, 37°C, mean ± SD (n=2)
[4] = second-order rate constant of inactivation, PBS pH 7.4, 37°C, mean ± SD (n=2)

T1 sequence (P00761 9-231): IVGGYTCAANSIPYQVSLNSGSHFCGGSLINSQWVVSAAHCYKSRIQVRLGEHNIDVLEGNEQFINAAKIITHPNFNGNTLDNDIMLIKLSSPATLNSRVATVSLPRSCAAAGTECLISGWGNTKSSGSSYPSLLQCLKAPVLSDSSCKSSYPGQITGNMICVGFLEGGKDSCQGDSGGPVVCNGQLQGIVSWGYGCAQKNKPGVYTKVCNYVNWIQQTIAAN

k 3 [1, 3]	effectiveness as irreversible inhibitor relative to the analogous lysine diphenyl phosphonate QUBTL2 ([1]; fold greater than QUBTL2)	k 3 / K i [1, 4] [M⁻¹ min⁻¹]	Ki ([2]; MeO-Succinyl-Ala-Ala-Pro-Val-NHMec 50 μM, PBS pH 7.4, 37°C, mean ± SD (n=2)) [µM]	k 3 [2, 3]	second-order rate constant (k 3/K i) relative to the analogous valine diphenyl phosphonate QUBEL1 ([2]; fold greater than QUBEL1)	SMILES	k 3 / K i [2, 4]
0.6 (+ 0.2) min^−1	two-fold	2.74e+06	–	–	–	NCCCCN(CC(=O)NCC(=O)NCC(=O)NCCCOCCOCCOCCCNC(=O)CCCCC1SCC2NC(=O)NC21)C(=O)ON1C(=O)CCC1=O (stereo not drawn) [NAP830, Succinimidoyl-CO-NLys-Gly-Gly-PEG-Biotin]	–
–	–	–	6	0.38(± 0.06) min^−1	approximately five-fold	CC(C)N(CC(=O)NCC(=O)NCC(=O)NCCCOCCOCCOCCCNC(=O)CCCCC1SCC2NC(=O)NC21)C(=O)ON1C(=O)CCC1=O (stereo not drawn) [NAP800, Succinimidoyl-CO-NVal-Gly-Gly-PEG-Biotin]	6.41 × 10^4 M^−1 min^−1 and 6.4 (± 0.57) × 10^4 M^−1 min^−1
